The results in this text go back to ChEMBL document CHEMBL3621053, “Isoxazole derivatives of 6-fluoro-N-(6-methoxybenzo[d]thiazol-2-yl)benzo[d]thiazol-2-amine and N-(pyrimidin-2-yl)benzo[d]thiazol-2-amine: regulation of cell cycle and apoptosis by p53 activation via mitochondrial-dependent pathways” (Medchemcomm, 2014).

Test [1] can be described thus: Anticancer activity against human COLO205 cells by MTT assay. The class given is functional, cell-based. Particulars: COLO 205.
Test [2] deals with U-937. In words: Anticancer activity against human U937 cells by MTT assay. Format: functional, cell-based. Background: Formazan colour is commonly taken as a measure of viable cells.
The subject of test [3] is MCF7. Nature of the test: Anticancer activity against human MCF7 cells by MTT assay. The class given is functional, cell-based.
Test [4] relates to A549. In words: Anticancer activity against human A549 cells by MTT assay. Format: functional, cell-based.
In test [5] the test system is COLO 205. Nature of the test: Induction of DNA damage in human COLO205 cells assessed as tail DNA formation by alkaline comet assay (reference value: 0%). Format: functional.
The test system of test [6] is COLO 205. Nature of the test: Induction of cell cycle arrest in human COLO205 cells assessed as accumulation at G2/M phase after 24 hrs by flow cytometry. The class given is functional, cell-based.
Test [7] in a line: Decrease in Bcl2 expression in human COLO205 cells after 24 hrs by western blot analysis. Conditions: COLO 205. Format: functional, cell-based. On the technique in general: Immunoblotting shows a protein as a band on a membrane.
Test [8] deals with COLO 205. In words: Increase in Bax expression in human COLO205 cells after 24 hrs by western blot analysis. The class given is functional, cell-based.
Test [9] can be described thus: Decrease in cyclin B1 expression in human COLO205 cells by western blot analysis. Format: functional, cell-based. Conditions: COLO 205.
Test [10] has as its system COLO 205. In words: Effect on CDK1 expression in human COLO205 cells by western blot analysis. The class given is functional, cell-based.
For test [11], the system named is COLO 205. In words: Increase in Apaf1 expression in human COLO205 cells after 24 hrs by western blot analysis. The class given is functional, cell-based.
Test [12] relates to COLO 205. In words: Increase in procaspase-3 expression in human COLO205 cells after 24 hrs by western blot analysis. The class given is functional, cell-based.
The test system of test [13] is COLO 205. Nature of the test: Increase in active caspase-3 expression in human COLO205 cells after 24 hrs by western blot analysis. Format: functional, cell-based.
For test [14], the system named is COLO 205. Nature of the test: Increase in caspase-9 expression in human COLO205 cells after 24 hrs by western blot analysis. Format: functional, cell-based.
Test [15] in a line: Decrease in NFkappaB expression in human COLO205 cells after 24 hrs by western blot analysis. The class given is functional, cell-based. Particulars: COLO 205.

The source made the active and inactive calls. The rule behind the calls is not given here.

One may read the IC50 as the concentration that inhibits the measured activity by half. Lower therefore signals inhibition by little substance. `COc1cc(-c2cc(CN(c3ncccn3)c3nc4ccccc4s3)on2)cc(OC)c1OC`: the IC50 was 10.2 µM in [1], 26.1 µM in test [2], 13.4 µM in test [3] and 28.4 µM in test [4].
Take `COc1ccc(-c2cc(CN(c3nc4ccc(F)cc4s3)c3nc4ccc(OC)cc4s3)on2)cc1`: the IC50 came out at 11.4 µM in test [1], 138 µM in [2], 32.4 µM in test [3] and 38.8 µM in [4].
In the same order, the values of `COc1ccc2nc(N(Cc3cc(-c4ccc(Br)cc4)no3)c3nc4ccc(F)cc4s3)sc2c1` are 7 µM, 34.9 µM, 41.1 µM and 32.7 µM.
As for `C#CCN(c1nc2ccc(F)cc2s1)c1nc2ccc(OC)cc2s1`, the IC50 stood at 30.3 µM in [1], 24.9 µM in [2], 27.8 µM in [3] and 24.4 µM in test [4].
For `FC(F)(F)Oc1ccc(-c2cc(CN(c3ncccn3)c3nc4ccccc4s3)on2)cc1`, the IC50 in test [1] came to 5.69 µM; in test [2], 13.5 µM; in test [3], 14.8 µM; in test [4], 31.8 µM.
Regarding `C#CCN(c1ncccn1)c1nc2ccccc2s1`, the IC50 in test [1] was 12 µM; in test [2] it was 15.7 µM; in test [3], 18.3 µM; in test [4] it was 17.4 µM. Besides, the Activity in [5] came to 4.194%. Also, the outcome in test [6] and in [7] was Active. The inhibition entry in test [8] is “Active”.
In the case of `COc1ccc2nc(N(Cc3cc(-c4ccc(SC(F)(F)F)cc4)no3)c3nc4ccc(F)cc4s3)sc2c1`, the IC50 in test [1] worked out at 11.1 µM; in test [2], 42.9 µM; in test [3] it was 14.1 µM; in test [4], 26.5 µM.
Consider `Brc1ccc(-c2cc(CN(c3ncccn3)c3nc4ccccc4s3)on2)cc1`, for which the IC50 came to 8.82 µM in [1], 13.6 µM in test [2], 21.1 µM in [3] and 31.5 µM in test [4].
Turning to `COc1ccc2nc(N(Cc3cc(-c4ccc(OC(F)(F)F)cc4)no3)c3nc4ccc(F)cc4s3)sc2c1`, the IC50 in [1] was found to be 9.94 µM; in test [2], 23.1 µM; in test [3], 17.4 µM; in test [4] it was 37.1 µM.
`COc1cc([C@@H]2c3cc4c(cc3[C@@H](O[C@@H]3O[C@@H]5CO[C@@H](C)O[C@H]5[C@H](O)[C@H]3O)[C@H]3COC(=O)[C@H]23)OCO4)cc(OC)c1O` [ETOPOSIDE]: the IC50 in test [1] stood at 0.47 µM; in test [2], 10.1 µM; in test [3] it was 0.008 µM; in test [4] it was 4.7 µM. In test [5], the Activity is 6.564%. The result in [6] and in [7] was Active. The inhibition result in test [8] was “Active”.
Turning to `FC(F)(F)Sc1ccc(-c2cc(CN(c3ncccn3)c3nc4ccccc4s3)on2)cc1`, the IC50 in test [1] stood at 10.1 µM; in test [2] it was 19.4 µM; in [3] it was 17.2 µM; in test [4], 29.8 µM.
Regarding `COc1ccc2nc(N(Cc3cc(-c4cc(OC)c(OC)c(OC)c4)no3)c3nc4ccc(F)cc4s3)sc2c1`, the IC50 in [1] turned out to be 11.8 µM; in test [2] it was 44 µM; in [3] it was 26.6 µM; in [4] it was 61.9 µM.
For `COc1ccc(-c2cc(CN(c3ncccn3)c3nc4ccccc4s3)on2)cc1`, the IC50 in test [1] is 5.04 µM; in test [2], 13.9 µM; in test [3], 30.7 µM; in [4] it was 30.4 µM. Moreover, in test [5], the Activity was 17.72%. Besides, the outcome in test [6], in [11], in [12], in test [13], in [14] and in test [7] was Active. The inhibition entry in test [9], in [15] and in test [8] was “Active” throughout. The result in test [10] was inactive.
In the case of `COc1ccc2nc(N(Cc3cc(-c4ccccc4F)no3)c3nc4ccc(F)cc4s3)sc2c1`, the IC50 in test [1] stood at 13.4 µM; in [2], 29.4 µM; in test [3], 28.5 µM; in test [4], 51.8 µM.
Turning to `Fc1ccccc1-c1cc(CN(c2ncccn2)c2nc3ccccc3s2)on1`, the IC50 in test [1] was 13.2 µM; in test [2], 27.6 µM; in test [3], 19.5 µM; in test [4] it was 25.4 µM.
